Patent US8741836B2, “Polypeptides” (Novo Nordisk A/S, priority 2011, dated 2014)
Starred links: 1 amine or outer side, 2 acyl side, 3 side chain; linkers in the order of their positions; H or OH if unused. Positions of bridges follow the written chain, without caps; N, C: chain ends. Non-standard residues stand in square brackets, D forms with d. Residues, ends and D or L forms follow the SMILES beside them. *: point of attachment. C20 diacid = O=C(O)CCCCCCCCCCCCCCCCCCC(=O)*; γGlu = O=C(O)[C@H](CCC(=O)[*:2])N[*:1]; AEEA = NCCOCCOCC(=O)O

Assay: Assay (III) ThT fibrillation assay for physical stability
Type: physicochemical
Conditions: pH 4.0
Source text: Assay (III)—ThT Fibrillation Assays for the Assessment of Physical Stability of Protein formulations Low physical stability of a polypeptide may lead to amyloid fibril formation, which is observed as well-ordered, thread-like macromolecular structures in the sample eventually resulting in gel formation. This has traditionally been measured by visual inspection of the sample. However, that kind of measurement is very subjective and depending on the observer. Therefore, the application of a small molecule indicator probe is much more advantageous. Thioflavin T (ThT) is such a probe and has a distinct fluorescence signature when binding to fibrils [Naiki et al. (1989) Anal. Biochem. 177, 244-249; LeVine (1999) Methods. Enzymol. […], 274-284]. The time course for fibril formation can be described by a sigmoidal curve with the following expression [Nielsen et al. (2001) Biochemistry 40, 6036-6046]: [formula] Here, F is the ThT fluorescence at the time t. The constant t0 is the time needed to reach 50% of maximum fluorescence. […] Few of those intermediates nucleate to form a template onto which further intermediates may assembly and the fibrillation proceeds. The lag-time corresponds to the interval in which the critical mass of nucleus is built up and the apparent rate constant is the rate with which the fibril itself is formed. Sample Preparation Samples were prepared freshly before each assay. Each sample composition is described in each example. The pH of the sample was adjusted to the desired value using appropriate amounts of concentrated NaOH and HClO4 or HCl. Thioflavin T was added to the samples from a stock solution in H2O to a final concentration of 1 μM. Sample aliquots of 200 μl were placed in a 96 well microtiter plate (Packard OptiPlate™-96, white polystyrene). Usually, four or eight replica of each sample (corresponding to one test condition) were placed in one column of wells. The plate was sealed with Scotch Pad (Qiagen). Incubation and Fluorescence Measurement Incubation at given temperature, shaking and measurement of the ThT fluorescence emission were done in a Fluoroskan Ascent FL fluorescence platereader or Varioskan platereader (Thermo Labsystems). The temperature was adjusted to 37° C. The orbital shaking was adjusted to 960 rpm with an amplitude of 1 mm in all the presented data. Fluorescence measurement was done using excitation through a 444 nm filter and measurement of emission through a 485 nm filter. Each run was initiated by incubating the plate at the assay temperature for 10 min. The plate was measured every 20 minutes for a desired period of time. Between each measurement, the plate was shaken and heated as described. Data Handling The measurement points were saved in Microsoft Excel format for further processing and curve drawing and fitting was performed using GraphPad Prism. The background emission from ThT in the absence of fibrils was negligible. The data points are typically a mean of four or eight samples and shown with standard deviation error bars. Only data obtained in the same experiment (i.e. samples on the same plate) are presented in the same graph ensuring a relative measure of fibrillation between experiments. The data set may be fitted to Eq. (1). However, since full sigmodial curves in this case are not always achieved during the measurement time, the degree of fibrillation is expressed as ThT fluorescence tabulated as the mean of the samples and shown with the standard deviation at various time points. Measurement of Initial and Final Concentrations The polypeptide concentration in each of the tested formulations were measured both before application in the ThT fibrillation assay (“Initial”) and after completion of the ThT fibrillation (“After ThT assay”). Concentrations were determined by reverse HPLC methods using a pramlintide standard as a reference. Before measurement after completion 150 μl was collected from each of the replica and transferred to an Eppendorf tube. […]

ThT pH 4.0 lag time (physical stability in fibrillogenesis assay)	Structure (SMILES)
>45 h	CC[C@H](C)[C@H](NC(=O)[C@@H]1CCCN1C(=O)CNC(=O)[C@H](Cc1ccccc1)NC(=O)[C@H](CCC(N)=O)NC(=O)[C@H](CCC(N)=O)NC(=O)[C@H](CO)NC(=O)[C@H](CO)NC(=O)[C@H](Cc1c[nH]cn1)NC(=O)[C@H](CCCNC(=N)N)NC(=O)[C@H](CC(C)C)NC(=O)[C@H](Cc1ccccc1)NC(=O)[C@H](CCC(=O)O)NC(=O)[C@H](C)NC(=O)[C@H](CC(C)C)NC(=O)[C@H](CCCNC(=N)N)NC(=O)[C@H](CCC(N)=O)NC(=O)[C@@H](NC(=O)[C@H](C)NC(=O)[C@@H]1CSSC[C@H](NC(=O)[C@H](CCC(=O)O)NC(=O)[C@H](CCCNC(=N)N)NC(=O)[C@H](CCC(=O)O)NC(=O)CC[C@H](NC(=O)CCCCCCCCCCCCCCCCCCC(=O)O)C(=O)O)C(=O)N[C@@H](CC(N)=O)C(=O)N[C@@H]([C@@H](C)O)C(=O)N[C@@H](C)C(=O)N[C@@H]([C@@H](C)O)C(=O)N1)[C@@H](C)O)C(=O)N[C@@H](CC(C)C)C(=O)N1CCC[C@H]1C(=O)N1CCC[C@H]1C(=O)N[C@H](C(=O)N[C@@H](CCC(N)=O)C(=O)N[C@H](C(=O)NCC(=O)N[C@@H](CO)C(=O)N[C@@H](CCC(N)=O)C(=O)N[C@H](C(=O)N1CCC[C@H]1C(N)=O)[C@@H](C)O)C(C)C)[C@@H](C)O [Example 164, N-alpha-[(S)-4-Carboxy-4-(19-carboxynonadecanoylamino)butyryl]-Glu-Arg-[Glu1,Glu14,Arg17,Gln21,Gln22,Gln31,Gln35,Pro37]-pramlintide] ({C20 diacid-γGlu}-ERECNTATCATQRLAEFLRHSSQQFGPILPPTQVGSQTP-NH2; disulfide 4-9 (inferred))
>45 h	CC[C@H](C)[C@H](NC(=O)[C@@H]1CCCN1C(=O)CNC(=O)[C@H](Cc1ccccc1)NC(=O)[C@H](CC(N)=O)NC(=O)[C@H](C)NC(=O)[C@H](CO)NC(=O)[C@H](CO)NC(=O)[C@H](CCCNC(=N)N)NC(=O)[C@H](Cc1cnc[nH]1)NC(=O)[C@H](CC(C)C)NC(=O)[C@H](Cc1ccccc1)NC(=O)[C@H](CCC(=O)O)NC(=O)[C@H](C)NC(=O)[C@H](CC(C)C)NC(=O)[C@H](CCCNC(=N)N)NC(=O)[C@H](CCC(N)=O)NC(=O)[C@@H](NC(=O)[C@H](C)NC(=O)[C@@H]1CSSC[C@H](NC(=O)[C@H](CCCCN)NC(=O)[C@@H](CCCNC(=N)N)NC(=O)[C@@H](CCCNC(=N)N)NC(=O)COCCOCCNC(=O)COCCOCCNC(=O)CC[C@H](NC(=O)CCCCCCCCCCCCCCCCCCC(=O)O)C(=O)O)C(=O)N[C@@H](CC(N)=O)C(=O)N[C@@H]([C@@H](C)O)C(=O)N[C@@H](C)C(=O)N[C@@H]([C@@H](C)O)C(=O)N1)[C@@H](C)O)C(=O)N[C@@H](CC(C)C)C(=O)N1CCC[C@H]1C(=O)N1CCC[C@H]1C(=O)N[C@H](C(=O)N[C@@H](CC(N)=O)C(=O)N[C@H](C(=O)NCC(=O)N[C@@H](CO)C(=O)N[C@@H](CO)C(=O)N[C@H](C(=O)N[C@@H](Cc1ccc(O)cc1)C(N)=O)[C@@H](C)O)C(C)C)[C@@H](C)O [Example 38, N-alpha-[2-(2-{2-[2-(2-{2-[(S)-4-Carboxy-4-(19-carboxyheptadecanoylamino)butyrylamino]ethoxy}ethoxy)acetylamino]ethoxy}ethoxy)acetyl]-D-Arg-D-Arg-[Glu14,His17,Arg18,Ala21,Ser35]-pramlintide] ({C20 diacid-γGlu-AEEA-AEEA}-[dR][dR]KCNTATCATQRLAEFLHRSSANFGPILPPTNVGSSTY-NH2; disulfide 4-9)

Same assay, conditions: pH 4.0, ThT fibrillation assay

ThT pH 4.0 lag time	Structure (SMILES)
>45 h	CC[C@H](C)[C@H](NC(=O)[C@@H]1CCCN1C(=O)CNC(=O)[C@H](Cc1ccccc1)NC(=O)[C@H](CCC(N)=O)NC(=O)[C@H](CCC(N)=O)NC(=O)[C@H](CO)NC(=O)[C@H](CO)NC(=O)[C@H](Cc1c[nH]cn1)NC(=O)[C@H](CCCNC(=N)N)NC(=O)[C@H](CC(C)C)NC(=O)[C@H](Cc1ccccc1)NC(=O)[C@H](CCC(=O)O)NC(=O)[C@H](C)NC(=O)[C@H](CC(C)C)NC(=O)[C@H](CCCNC(=N)N)NC(=O)[C@H](CCC(N)=O)NC(=O)[C@@H](NC(=O)[C@H](C)NC(=O)[C@@H]1CSSC[C@H](NC(=O)[C@H](CCC(=O)O)NC(=O)[C@H](CCCNC(=N)N)NC(=O)[C@H](CCC(=O)O)NC(=O)CC[C@H](NC(=O)CCCCCCCCCCCCCCCCCCC(=O)O)C(=O)O)C(=O)N[C@@H](CC(N)=O)C(=O)N[C@@H]([C@@H](C)O)C(=O)N[C@@H](C)C(=O)N[C@@H]([C@@H](C)O)C(=O)N1)[C@@H](C)O)C(=O)N[C@@H](CC(C)C)C(=O)N1CCC[C@H]1C(=O)N1CCC[C@H]1C(=O)N[C@H](C(=O)N[C@@H](CCC(N)=O)C(=O)N[C@H](C(=O)NCC(=O)N[C@@H](CO)C(=O)N[C@@H](CCC(N)=O)C(=O)N[C@H](C(=O)N1CCC[C@H]1C(N)=O)[C@@H](C)O)C(C)C)[C@@H](C)O [Example 164, N-alpha-[(S)-4-Carboxy-4-(19-carboxynonadecanoylamino)butyryl]-Glu-Arg-[Glu1,Glu14,Arg17,Gln21,Gln22,Gln31,Gln35,Pro37]-pramlintide] ({C20 diacid-γGlu}-ERECNTATCATQRLAEFLRHSSQQFGPILPPTQVGSQTP-NH2; disulfide 4-9 (inferred))
>45 h	CC[C@H](C)[C@H](NC(=O)[C@@H]1CCCN1C(=O)CNC(=O)[C@H](Cc1ccccc1)NC(=O)[C@H](CC(N)=O)NC(=O)[C@H](CC(N)=O)NC(=O)[C@H](CO)NC(=O)[C@H](CO)NC(=O)[C@H](Cc1c[nH]cn1)NC(=O)[C@H](CCCNC(=N)N)NC(=O)[C@H](CC(C)C)NC(=O)[C@H](Cc1ccccc1)NC(=O)[C@H](CCC(=O)O)NC(=O)[C@H](C)NC(=O)[C@H](CC(C)C)NC(=O)[C@H](CCCNC(=N)N)NC(=O)[C@H](CCC(N)=O)NC(=O)[C@@H](NC(=O)[C@H](C)NC(=O)[C@@H]1CSSC[C@H](NC(=O)[C@H](CCCNC(=N)N)NC(=O)[C@H](CCC(=O)O)NC(=O)CC[C@H](NC(=O)CCCCCCCCCCCCCCCCCCC(=O)O)C(=O)O)C(=O)N[C@@H](CC(N)=O)C(=O)N[C@@H]([C@@H](C)O)C(=O)N[C@@H](C)C(=O)N[C@@H]([C@@H](C)O)C(=O)N1)[C@@H](C)O)C(=O)N[C@@H](CC(C)C)C(=O)N1CCC[C@H]1C(=O)N1CCC[C@H]1C(=O)N[C@H](C(=O)N[C@@H](CC(N)=O)C(=O)N[C@H](C(=O)NCC(=O)N[C@@H](CO)C(=O)N[C@@H](CC(N)=O)C(=O)N[C@H](C(=O)N1CCC[C@H]1C(N)=O)[C@@H](C)O)C(C)C)[C@@H](C)O [compound 156] ({C20 diacid-γGlu}-ERCNTATCATQRLAEFLRHSSNNFGPILPPTNVGSNTP-NH2; disulfide 3-8 (inferred))
>45 h	CC[C@H](C)[C@H](NC(=O)[C@@H]1CCCN1C(=O)CNC(=O)[C@H](Cc1ccccc1)NC(=O)[C@H](CC(N)=O)NC(=O)[C@H](CC(N)=O)NC(=O)[C@H](CO)NC(=O)[C@H](CO)NC(=O)[C@H](Cc1c[nH]cn1)NC(=O)[C@H](CCCNC(=N)N)NC(=O)[C@H](CC(C)C)NC(=O)[C@H](Cc1ccccc1)NC(=O)[C@H](CCC(=O)O)NC(=O)[C@H](C)NC(=O)[C@H](CC(C)C)NC(=O)[C@H](CCCNC(=N)N)NC(=O)[C@H](CCC(N)=O)NC(=O)[C@@H](NC(=O)[C@H](C)NC(=O)[C@@H]1CSSC[C@H](NC(=O)[C@H](CCCCN)NC(=O)[C@H](Cc2c[nH]cn2)NC(=O)CC[C@H](NC(=O)CCCCCCCCCCCCCCCCCCC(=O)O)C(=O)O)C(=O)N[C@@H](CC(N)=O)C(=O)N[C@@H]([C@@H](C)O)C(=O)N[C@@H](C)C(=O)N[C@@H]([C@@H](C)O)C(=O)N1)[C@@H](C)O)C(=O)N[C@@H](CC(C)C)C(=O)N1CCC[C@H]1C(=O)N1CCC[C@H]1C(=O)N[C@H](C(=O)N[C@@H](CC(N)=O)C(=O)N[C@H](C(=O)NCC(=O)N[C@@H](CO)C(=O)N[C@@H](Cc1c[nH]cn1)C(=O)N[C@H](C(=O)N[C@@H](Cc1ccc(O)cc1)C(N)=O)[C@@H](C)O)C(C)C)[C@@H](C)O [Example 68, N-alpha-[(S)-4-Carboxy-4-(19-carboxynonadecanoylamino)butyryl]-His-[Glu14,Arg17,His35]-pramlintide] ({C20 diacid-γGlu}-HKCNTATCATQRLAEFLRHSSNNFGPILPPTNVGSHTY-NH2; disulfide 3-8 (inferred); C-terminus assumed)
>45 h	CC[C@H](C)[C@H](NC(=O)[C@@H]1CCCN1C(=O)CNC(=O)[C@H](Cc1ccccc1)NC(=O)[C@H](CC(N)=O)NC(=O)[C@H](CC(N)=O)NC(=O)[C@H](CO)NC(=O)[C@H](CO)NC(=O)[C@H](Cc1c[nH]cn1)NC(=O)[C@H](Cc1c[nH]cn1)NC(=O)[C@H](CC(C)C)NC(=O)[C@H](Cc1ccccc1)NC(=O)[C@H](CCC(=O)O)NC(=O)[C@H](C)NC(=O)[C@H](CC(C)C)NC(=O)[C@H](CCCNC(=N)N)NC(=O)[C@H](CCC(N)=O)NC(=O)[C@@H](NC(=O)[C@H](C)NC(=O)[C@@H]1CSSC[C@H](NC(=O)[C@H](Cc2c[nH]cn2)NC(=O)CC[C@H](NC(=O)CCCCCCCCCCCCCCCCCCC(=O)O)C(=O)O)C(=O)N[C@@H](CC(N)=O)C(=O)N[C@@H]([C@@H](C)O)C(=O)N[C@@H](C)C(=O)N[C@@H]([C@@H](C)O)C(=O)N1)[C@@H](C)O)C(=O)N[C@@H](CC(C)C)C(=O)N1CCC[C@H]1C(=O)N1CCC[C@H]1C(=O)N[C@H](C(=O)N[C@@H](CC(N)=O)C(=O)N[C@H](C(=O)NCC(=O)N[C@@H](CO)C(=O)N[C@@H](Cc1c[nH]cn1)C(=O)N[C@H](C(=O)N[C@@H](Cc1ccc(O)cc1)C(N)=O)[C@@H](C)O)C(C)C)[C@@H](C)O [Example 76, N-alpha-[(S)-4-Carboxy-4-(19-carboxynonadecanoylamino)butyryl]-[His1,Glu14,His17,His35]-pramlintide] ({C20 diacid-γGlu}-HCNTATCATQRLAEFLHHSSNNFGPILPPTNVGSHTY-NH2; disulfide 2-7)
